ChEMBL document CHEMBL3102700, “Truncated norzoanthamine exhibiting similar collagen protection activity, toward a promising anti-osteoporotic drug” (Bioorg Med Chem Lett, 2014)
The source made the active and inactive calls. The rule behind the calls is not given here.

How the values were obtained:
[1] = Collagen protection activity of the compound assessed as residual collagen level at 0.1 uM after 180 mins by Sirius red colorimetric assay
[2] = Collagen protection activity of the compound assessed as residual collagen level at 10 uM after 180 mins by Sirius red colorimetric assay
[3] = Collagen protection activity of the compound assessed as residual collagen level after 180 mins by Sirius red colorimetric assay
[4] = Collagen protection activity of the compound assessed as residual collagen level at 1 uM after 180 mins by Sirius red colorimetric assay

Row | SMILES | Activity [1] [%] | Activity [2] [%] | Activity [3] | Activity [4] [%]
1 | C[C@H]1C[C@@H]2CN3[C@](CC[C@@]4(C)[C@]5(C)CCC[C@]34OC(=O)C5)(C1)O2 | 40 | 47.8 | Dose-dependent effect | 46.6
2 | COC(=O)C[C@@]1(C)[C@H]2C(=O)C[C@@H]3C(=O)C=C(C)C[C@H]3[C@]2(C)C=C2N3C[C@H]4C[C@H](C)C[C@]3(CC[C@]21C)O4 | – | – | inactive | –
3 | CC1=CC(=O)[C@H]2CC(=O)[C@H]3[C@@](C)(C[C@@]45OC(=O)C[C@]3(C)[C@]4(C)CC[C@]34C[C@@H](C)C[C@H](CN35)O4)[C@@H]2C1 | – | 45 | – | 40.4
4 | CC1=CC(=O)CCC1 | – | – | inactive | –
